From patent US5684151A, “1-arylsulphonyl, arylcarbonyl and 1-arylphosphonyl-3-phenyl-1,4,5,6-tetrahydropyridazines” (priority 1995, dated 1997)

Target: T1, progestin receptor from rabbit uterus (Oryctolagus cuniculus, UniProt P06186)
T1 construct: Cytosolic progestin receptor were obtained by mixing rabbit uterine tissue with a Tris buffer; from tissue; host or cells: rabbit uterus cytosol
Assay: Progestin receptor binding (3H-R5020 displacement)
Settings: rabbit uterine cytosol, 4° C., 18 h, read-out: IC50: Binding affinity for the progestin receptor from rabbit uterus
Experimental: A progestin initiates a biological response by first binding to a progestin receptor. Affinity for progestin receptors was determined by measuring the ability of compounds to displace a progestin radioligand from those receptors in vitro. Cytosolic progestin receptor were obtained by mixing rabbit uterine tissue with a Tris buffer [0.1M Tris-Hcl, 1 mM Na2 EDTA, 1 mM dithiothreotol, 1 mM sodium molybdate, 1% glycerol, pH 7.4]. The tissue/buffer mixture was homogenized under ice-cold conditions. The homogenate was then centrifuged and the supernatant (cytosol preparation) was decanted and stored at -70° C. and thawed prior to use. The competitive binding assay was performed by mixing ^3 H-R5020, a progestin radioligand, with cytosol preparation and various concentrations of test compounds (prepared in DMSO with a final 5% DMSO concentration). This mixture was then incubated at 4° C. for about 18 hours. Non-specific binding was determined using an unlabelled ligand in excess. After the incubation period, the radioligand bound to receptor was separated from free radioligand using dextran-coated charcoal. The amount of bound radioligand was then determined by liquid scintillation counting. The data were expressed as the concentration of test compound that displaced 50% of the radioligand from the receptor (IC50)
Aspects of the application used in this procedure are described in the following: J. L. McGuire et al., Biochemistry 13, 319, 1974.

T1 sequence (P06186 whole entry): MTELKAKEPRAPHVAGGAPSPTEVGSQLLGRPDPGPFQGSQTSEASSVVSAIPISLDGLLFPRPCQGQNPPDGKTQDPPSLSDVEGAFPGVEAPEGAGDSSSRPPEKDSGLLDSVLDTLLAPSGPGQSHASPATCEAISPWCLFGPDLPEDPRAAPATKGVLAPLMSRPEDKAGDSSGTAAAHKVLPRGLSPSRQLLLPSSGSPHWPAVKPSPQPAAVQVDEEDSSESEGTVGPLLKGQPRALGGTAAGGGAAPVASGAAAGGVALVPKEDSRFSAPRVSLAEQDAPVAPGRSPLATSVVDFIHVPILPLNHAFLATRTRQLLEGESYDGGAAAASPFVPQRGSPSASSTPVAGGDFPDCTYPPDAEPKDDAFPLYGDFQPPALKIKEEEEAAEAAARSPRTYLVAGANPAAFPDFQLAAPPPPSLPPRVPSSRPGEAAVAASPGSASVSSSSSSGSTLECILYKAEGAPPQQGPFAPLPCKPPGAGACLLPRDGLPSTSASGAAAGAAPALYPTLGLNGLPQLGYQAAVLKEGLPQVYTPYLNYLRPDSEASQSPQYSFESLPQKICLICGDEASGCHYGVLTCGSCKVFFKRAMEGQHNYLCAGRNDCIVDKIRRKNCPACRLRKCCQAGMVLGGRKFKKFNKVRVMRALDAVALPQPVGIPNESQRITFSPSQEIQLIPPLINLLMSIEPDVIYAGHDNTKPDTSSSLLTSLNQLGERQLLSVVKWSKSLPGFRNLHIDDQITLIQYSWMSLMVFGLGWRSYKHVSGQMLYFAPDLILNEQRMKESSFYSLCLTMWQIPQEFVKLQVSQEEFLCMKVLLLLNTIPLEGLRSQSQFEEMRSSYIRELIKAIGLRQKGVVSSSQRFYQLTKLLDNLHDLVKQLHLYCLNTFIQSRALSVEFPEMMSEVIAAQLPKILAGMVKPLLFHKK

Row | Structure (SMILES) | IC50
1 | O=[N+]([O-])c1ccc(S(=O)(=O)N2CCCC(c3ccc(Cl)c(C(F)(F)F)c3)=N2)cc1 [Compound 128] | 0.0142 µM
2 | O=S(=O)(c1ccc(C(F)(F)F)cc1)N1CCCC(c2ccc3ccccc3c2)=N1 [Compound 129] | 0.00494 µM
3 | O=S(=O)(c1ccc(F)cc1)N1CCCC(c2ccc(F)cc2)=N1 [Compound 18] | 0.204 µM
4 | CCCCc1ccc(C2=NN(S(=O)(=O)c3ccccc3)CCC2)cc1 [Compound 76] | 10 µM
5 | O=S(=O)(c1ccc(I)cc1)N1CCCC(c2ccc(Cl)cc2)=N1 [Compound 16] | 0.0042 µM
6 | O=S(=O)(c1ccccc1)N1CCCC(c2ccc(Cl)c(C(F)(F)F)c2)=N1 [Compound 83] | 0.00483 µM
7 | O=[N+]([O-])c1cc(S(=O)(=O)N2CCCC(c3ccc(Cl)cc3)=N2)ccc1Cl [Compound 67] | 0.126 µM
8 | O=S(=O)(c1ccc(I)cc1)N1CCCC(c2ccc(F)cc2)=N1 [Compound 20] | 0.056 µM
9 | O=[N+]([O-])c1ccc(C(=S)N2CCCC(c3ccc(Cl)c(Cl)c3)=N2)cc1 [Compound 242] | 0.012 µM
10 | O=S(=O)(c1ccc(F)cc1F)N1CCCC(c2ccccc2)=N1 [Compound 59] | 0.455 µM
11 | O=[N+]([O-])c1ccc(S(=O)(=O)N2CCCC(c3ccc(F)cc3)=N2)c([N+](=O)[O-])c1 [Compound 23] | 3 µM
12 | O=S(=O)(c1ccc(Cl)c(Cl)c1)N1CCCC(c2ccccc2)=N1 [Compound 60] | 0.191 µM
13 | O=[N+]([O-])c1ccc(S(=O)(=O)N2CCCC(c3ccccc3)=N2)cc1 [Compound 53] | 2.2 µM
14 | O=S(=O)(c1ccc(Br)cc1)N1CCCC(c2ccc(F)cc2)=N1 [Compound 19] | 0.061 µM
15 | O=S(=O)(c1ccc(Cl)cc1)N1CCCC(c2cccc(Cl)c2)=N1 [Compound 93] | 0.0111 µM
16 | O=S(=O)(c1ccc(F)cc1)N1CCCC(c2ccc(Cl)c(Cl)c2)=N1 [Compound 106] | 0.00711 µM

Row | Structure (SMILES) | IC50
17 | O=[N+]([O-])c1ccccc1S(=O)(=O)N1CCCC(c2ccc(F)cc2)=N1 [Compound 24] | 0.308 µM
18 | Cc1ccc(S(=O)(=O)N2CC(C)CC(c3ccccc3)=N2)cc1 (stereo not shown) [Compound 143] | 1.38 µM
19 | O=S(=O)(c1ccc(I)cc1)N1N=C(c2ccc(Cl)cc2)CC2CC=CC21 (stereo not shown) [Compound 160, 3-(4-Chlorophenyl)-1-(4-iodobenzenesulfonyl)-4,4a,5,7a-tetrahydro-1H-cyclopenta[c]pyridiazine] | 0.032 µM
20 | O=S(=O)(c1ccc(F)cc1)N1CCCC(c2ccccc2)=N1 [Compound 54] | 0.78 µM
21 | Fc1ccc(C(=S)N2CCCC(c3ccc(Cl)c(Cl)c3)=N2)cc1Br [Compound 246] | 0.114 µM
22 | O=S(=O)(c1cc(Cl)c(Cl)cc1Cl)N1CCCC(c2ccc(Cl)cc2)=N1 [Compound 68] | 0.0134 µM
23 | O=S(=O)(c1cccc2ccccc12)N1CCCC(c2ccccc2)=N1 [Compound 56] | 0.0852 µM
24 | O=[N+]([O-])c1ccc(S(=O)(=O)N2CCCC(c3ccc(Cl)cc3)=N2)c([N+](=O)[O-])c1 [Compound 28] | 3.14 µM
25 | O=S(=O)(c1ccc2ccccc2c1)N1CCCC(c2ccc3ccccc3c2)=N1 [Compound 132] | 0.0075 µM
26 | CCCCc1ccc(S(=O)(=O)N2CCCC(c3ccc(Cl)c(Cl)c3)=N2)cc1 [Compound 108] | 0.00335 µM
27 | O=S(=O)(c1cc(Cl)cc(Cl)c1)N1CCCC(c2ccc(Cl)cc2)=N1 [Compound 31] | 0.004 µM
28 | O=S(=O)(c1cc(Cl)ccc1Cl)N1CCCC(c2ccc3c(c2)OCCO3)=N1 [Compound 123] | 0.557 µM
29 | O=S(=O)(/C=C/c1ccc2ccccc2c1)N1CCCC(c2ccc(Cl)c(C(F)(F)F)c2)=N1 [Compound 177] | 0.528 µM
30 | O=[N+]([O-])c1cccc(S(=O)(=O)N2CCCC(c3ccccc3)=N2)c1 [Compound 62] | 0.157 µM
31 | Nc1ccc(S(=O)(=O)N2CCCC(c3ccc(Cl)c(Cl)c3)=N2)cc1 [Compound 274, 1-(4-Aminobenzenesulfonyl)-3-(3,4-dichlorophenyl)-1,4,5,6-tetrahydropyridazine] | 0.204 µM
